Data as given in patent US10543212B2, “Substituted amines for treating cardiac diseases” (Cardurion Pharmaceuticals, LLC, priority 2017, dated 2020).

Biological target: T1, Full-length, GST-tagged, human CaMKIIδ (Homo sapiens, UniProt Q13557)
T1 construct: Full-Length, Glutathione-S-Transferase(GST)-Tagged, Human CaMKIIδ was purchased from Carna Biosciences; purchased Carna Biosciences 02-111
Experiment: CaMKIIδ binding assay (TR-FRET with BODIPY-labeled probe ligand)
Procedure, shortened: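 Compounds were tested as 4-fold, eight-point series for 1 hr at room temperature, and IC50 was obtained by logistic fitting against a 3 μM parent-compound control. Signal came from displacement of a 300 nM BODIPY ligand from 0.5 nM GST-CaMKIIδ, detected via Tb-anti-GST in calmodulin/Ca2+ (pH 7.6).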

[1] = CaMKIIδ binding assay, results of Table 2
[2] = Table 2, CaMKIIδ binding assay, activity given as class A/B/C
[3] = CaMKIIδ binding assay, activity class per Table 2
[4] = Table 2, activity class for CaMKIIδ

T1 sequence (Q13557 1-478 isoform Q13557-12): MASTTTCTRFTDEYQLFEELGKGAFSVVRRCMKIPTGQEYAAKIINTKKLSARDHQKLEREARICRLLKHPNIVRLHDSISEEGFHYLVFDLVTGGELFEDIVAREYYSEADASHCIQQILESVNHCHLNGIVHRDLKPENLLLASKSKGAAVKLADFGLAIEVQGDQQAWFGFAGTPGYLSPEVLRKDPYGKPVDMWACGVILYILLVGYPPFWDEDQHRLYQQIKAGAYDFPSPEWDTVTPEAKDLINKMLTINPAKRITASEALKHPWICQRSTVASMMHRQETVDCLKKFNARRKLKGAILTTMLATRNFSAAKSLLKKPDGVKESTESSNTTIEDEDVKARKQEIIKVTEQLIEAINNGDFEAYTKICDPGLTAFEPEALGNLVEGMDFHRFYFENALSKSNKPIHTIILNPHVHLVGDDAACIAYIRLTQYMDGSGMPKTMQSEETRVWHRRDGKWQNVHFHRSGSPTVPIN

C[C@@H](Cn1cnnn1)Oc1cc(-c2cnc(Nc3ccc4c(c3)N(C(=O)CCN(C)C)CC4)nc2)ccc1Cl [Example 437, (S)-1-(6-((5-(3-((1-(1H-tetrazol-1-yl)propan-2-yl)oxy)-4-chlorophenyl)pyrimidin-2-yl)amino)indolin-1-yl)-3-(dimethylamino)propan-1-one]
IC50 [1]: < 10 nM

C[C@@H](Cn1cnnn1)Oc1cc(-c2cnc(Nc3cn(CCN)nc3C(F)(F)F)nc2)ccc1Cl [Example 877, (S)-5-(3-((1-(1H-tetrazol-1-yl)propan-2-yl)oxy)-4-chlorophenyl)-N-(1-(2-aminoethyl)-3-(trifluoromethyl)-1H-pyrazol-4-yl)pyrimidin-2-amine]
IC50 [2]: < 10 nM

CC(C)c1nn(C2CC3(C2)CN(C2(C)CCOC2)C3)cc1Nc1ncc(-c2ccc(Cl)c(O[C@@H](C)Cn3cnnn3)c2)cn1 (stereo partly drawn) [Example 956, 5-(3-(((S)-1-(1H-tetrazol-1-yl)propan-2-yl)oxy)-4-chlorophenyl)-N-(3-isopropyl-1-(2-(3-methyltetrahydrofuran-3-yl)-2-azaspiro[3.3]heptan-6-yl)-1H-pyrazol-4-yl)pyrimidin-2-amine]
IC50 [3]: < 10 nM

C[C@@H](Cn1cnnn1)Oc1cc(-c2cnc(Nc3cn(C4CC5(C4)CN(c4ccccn4)C5)nc3OCC(F)(F)F)nc2)ccc1Cl [Example 1001, (S)-5-(3-((1-(1H-tetrazol-1-yl)propan-2-yl)oxy)-4-chlorophenyl)-N-(1-(2-(pyridin-2-yl)-2-azaspiro[3.3]heptan-6-yl)-3-(2,2,2-trifluoroethoxy)-1H-pyrazol-4-yl)pyrimidin-2-amine]
IC50 [3]: < 10 nM

C[C@@H](Cn1cnnn1)Oc1cc(-c2cnc(Nc3cn(Cc4ccccn4)nc3C(F)(F)F)nc2)ccc1Cl [Example 707, (S)-5-(3-((1-(1H-tetrazol-1-yl)propan-2-yl)oxy)-4-chlorophenyl)-N-(1-(pyridin-2-ylmethyl)-3-(trifluoromethyl)-1H-pyrazol-4-yl)pyrimidin-2-amine]
IC50 [4]: 10 to 100 nM

COc1cc(N2CCNCC2)cnc1Nc1ncc(-c2ccc(Cl)c(O[C@@H](C)Cn3cnnn3)c2)cn1 [Example 621, (S)-5-(3-((1-(1H-tetrazol-1-yl)propan-2-yl)oxy)-4-chlorophenyl)-N-(3-methoxy-5-(piperazin-1-yl)pyridin-2-yl)pyrimidin-2-amine]
IC50 [4]: 10 to 100 nM

C[C@@H](Cn1cnnn1)Oc1cc(-c2cnc(Nc3cn([C@H]4C[C@H](N)C4)nc3OCC(F)(F)F)nc2)ccc1Cl [Example 941, 5-(3-(((S)-1-(1H-tetrazol-1-yl)propan-2-yl)oxy)-4-chlorophenyl)-N-(1-(trans-3-aminocyclobutyl)-3-(2,2,2-trifluoroethoxy)-1H-pyrazol-4-yl)pyrimidin-2-amine]
IC50 [3]: < 10 nM

CC(C)c1nn([C@H]2CC[C@@H](N3CCOCC3)CC2)cc1Nc1ncc(-c2ccc(Cl)c(O[C@@H](C)Cn3cnnn3)c2)cn1 [Example 842, 5-(3-(((S)-1-(1H-tetrazol-1-yl)propan-2-yl)oxy)-4-chlorophenyl)-N-(3-isopropyl-1-(cis-4-morpholinocyclohexyl)-1H-pyrazol-4-yl)pyrimidin-2-amine]
IC50 [2]: < 10 nM

COc1cc(C2CCN(C3COC3)CC2)c(C)cc1Nc1ncc(-c2ccc(Cl)c(O[C@@H](C)Cn3cnnn3)c2)cn1 [Example 529, (S)-5-(3-((1-(1H-tetrazol-1-yl)propan-2-yl)oxy)-4-chlorophenyl)-N-(2-methoxy-5-methyl-4-(1-(oxetan-3-yl)piperidin-4-yl)phenyl)pyrimidin-2-amine]
IC50 [1]: < 10 nM

COc1ccc(C(=O)N2CCN(CC3CC3)CC2)cc1Nc1ncc(-c2ccc(Cl)c(O[C@@H](C)Cn3cnnn3)c2)cn1 [Example 681, (S)-(3-((5-(3-((1-(1H-tetrazol-1-yl)propan-2-yl)oxy)-4-chlorophenyl)pyrimidin-2-yl)amino)-4-methoxyphenyl) (4-(cyclopropylmethyl)piperazin-1-yl)methanone]
IC50 [4]: < 10 nM

C[C@@H](Cn1cnnn1)Oc1cc(-c2cnc(Nc3cn([C@H]4CC[C@@H](N5CCOCC5)CC4)nc3OCC(F)(F)F)nc2)ccc1C#N [Example 818, 2-(((S)-1-(1H-tetrazol-1-yl)propan-2-yl)oxy)-4-(2-((1-(cis-4-morpholinocyclohexyl)-3-(2,2,2-trifluoroethoxy)-1H-pyrazol-4-yl)amino)pyrimidin-5-yl)benzonitrile]
IC50 [2]: < 10 nM

C[C@@H](Cn1cnnn1)Oc1cc(-c2cnc(Nc3cn([C@H]4CC[C@@H](N5CCOCC5)CC4)nc3OCC(F)(F)F)nc2)ccc1Cl [Example 780, 5-(3-(((S)-1-(1H-tetrazol-1-yl)propan-2-yl)oxy)-4-chlorophenyl)-N-(1-(cis-4-morpholinocyclohexyl)-3-(2,2,2-trifluoroethoxy)-1H-pyrazol-4-yl)pyrimidin-2-amine]
IC50 [2]: < 10 nM

CCN(C)CC(=O)N1CCc2cc(Nc3ncc(-c4ccc(Cl)c(O[C@@H](C)Cn5cnnn5)c4)cn3)c(OC)cc2C1 [Example 514, (S)-1-(6-((5-(3-((1-(1H-tetrazol-1-yl)propan-2-yl)oxy)-4-chlorophenyl)pyrimidin-2-yl)amino)-7-methoxy-3,4-dihydroisoquinolin-2(1H)-yl)-2-(ethyl(methyl)amino)ethan-1-one]
IC50 [1]: < 10 nM

COc1cc2c(cc1Nc1ncc(-c3ccc(Cl)c(O[C@@H](C)Cn4cnnn4)c3)cn1)CCN(c1ccnc(C)n1)C2 [Example 505, (S)-N-(5-(3-((1-(1H-tetrazol-1-yl)propan-2-yl)oxy)-4-chlorophenyl)pyrimidin-2-yl)-7-methoxy-2-(2-methylpyrimidin-4-yl)-1,2,3,4-tetrahydroisoquinolin-6-amine]
IC50 [1]: 10 to 100 nM

COc1cc2c(cc1Nc1ncc(-c3ccc(Cl)c(O[C@@H](C)Cn4cnnn4)c3)cn1)N(C(=O)CN1CCOCC1)CC2 [Example 498, (S)-1-(6-((5-(3-((1-(1H-tetrazol-1-yl)propan-2-yl)oxy)-4-chlorophenyl)pyrimidin-2-yl)amino)-5-methoxyindolin-1-yl)-2-morpholinoethan-1-one]
IC50 [1]: ≥ 100 nM

COc1cc(N2CCN3CCCC3C2)ccc1Nc1ncc(-c2ccc(Cl)c(O[C@@H](C)Cn3cnnn3)c2)cn1 (stereo partly drawn) [Example 672, 5-(3-(((S)-1-(1H-tetrazol-1-yl)propan-2-yl)oxy)-4-chlorophenyl)-N-(4-(hexahydropyrrolo[1,2-a]pyrazin-2(1H)-yl)-2-methoxyphenyl)pyrimidin-2-amine]
IC50 [4]: < 10 nM

C[C@@H](Cn1cnnn1)Oc1cc(-c2cnc(Nc3cn(C4CCOC4)nc3C(F)(F)F)nc2)ccc1Cl (stereo partly drawn) [Example 644, 5-(3-(((S)-1-(1H-tetrazol-1-yl)propan-2-yl)oxy)-4-chlorophenyl)-N-(1-(tetrahydrofuran-3-yl)-3-(trifluoromethyl)-1H-pyrazol-4-yl)pyrimidin-2-amine]
IC50 [4]: 10 to 100 nM

COc1cc(N2CCC(N3CCOCC3)CC2)ccc1Nc1ncc(-c2cc(O[C@@H](C)Cn3cnnn3)c(Cl)cn2)cn1 [Example 534, (S)-5-(4-((1-(1H-tetrazol-1-yl)propan-2-yl)oxy)-5-chloropyridin-2-yl)-N-(2-methoxy-4-(4-morpholinopiperidin-1-yl)phenyl)pyrimidin-2-amine]
IC50 [1]: ≥ 100 nM

CCn1cc(Nc2ncc(-c3ccc(Cl)c(O[C@@H](C)Cn4cnnn4)c3)cn2)c(C(=O)O)n1 [Example 876, (S)-4-((5-(3-((1-(1H-tetrazol-1-yl)propan-2-yl)oxy)-4-chlorophenyl)pyrimidin-2-yl)amino)-1-ethyl-1H-pyrazole-3-carboxylic acid]
IC50 [2]: 10 to 100 nM

C[C@@H](Cn1cnnn1)Oc1cc(-c2cnc(Nc3cn(C4CC5(C4)CN(C4CCOC4)C5)nc3C(F)(F)F)nc2)ccc1Cl (stereo partly drawn) [Example 930, 5-(3-(((S)-1-(1H-tetrazol-1-yl)propan-2-yl)oxy)-4-chlorophenyl)-N-(1-(2-(tetrahydrofuran-3-yl)-2-azaspiro[3.3]heptan-6-yl)-3-(trifluoromethyl)-1H-pyrazol-4-yl)pyrimidin-2-amine]
IC50 [3]: < 10 nM

C[C@@H](Cn1cnnn1)Oc1cc(-c2cnc(Nc3cn(CC(C)(C)NC(=O)OC(C)(C)C)nc3C(F)(F)F)nc2)ccc1Cl [Example 860, tert-butyl (S)-(1-(4-((5-(3-((1-(1H-tetrazol-1-yl)propan-2-yl)oxy)-4-chlorophenyl)pyrimidin-2-yl)amino)-3-(trifluoromethyl)-1H-pyrazol-1-yl)-2-methylpropan-2-yl)carbamate]
IC50 [2]: ≥ 100 nM

C[C@@H](Cn1cnnn1)Oc1cc(-c2cnc(Nc3cn(C4CCCNC4)nc3C(F)(F)F)nc2)ccc1Cl (stereo partly drawn) [Example 600, 5-(3-(((S)-1-(1H-tetrazol-1-yl)propan-2-yl)oxy)-4-chlorophenyl)-N-(1-(piperidin-3-yl)-3-(trifluoromethyl)-1H-pyrazol-4-yl)pyrimidin-2-amine]
IC50 [4]: < 10 nM

C[C@@H](Cn1cnnn1)Oc1cc(-c2cnc(Nc3cn(Cc4nc5ccccc5c(=O)[nH]4)nc3C(F)(F)F)nc2)ccc1Cl [Example 741, (S)-2-((4-((5-(3-((1-(1H-tetrazol-1-yl)propan-2-yl)oxy)-4-chlorophenyl)pyrimidin-2-yl)amino)-3-(trifluoromethyl)-1H-pyrazol-1-yl)methyl)quinazolin-4(3H)-one]
IC50 [2]: 10 to 100 nM

C[C@@H](Cn1cnnn1)Oc1cc(-c2cnc(Nc3ccn(C)n3)nc2)ccc1Cl [Example 755, (S)-5-(3-((1-(1H-tetrazol-1-yl)propan-2-yl)oxy)-4-chlorophenyl)-N-(1-methyl-1H-pyrazol-3-yl)pyrimidin-2-amine]
IC50 [2]: 10 to 100 nM

C[C@@H](Cn1cnnn1)Oc1cc(-c2cnc(Nc3cn([C@H]4CC[C@@H](C(=O)O)CC4)nc3C(F)(F)F)nc2)ccc1Cl [Example 625, cis-(S)-4-(4-((5-(3-((1-(1H-tetrazol-1-yl)propan-2-yl)oxy)-4-chlorophenyl)pyrimidin-2-yl)amino)-3-(trifluoromethyl)-1H-pyrazol-1-yl)cyclohexane-1-carboxylic acid]
IC50 [4]: ≥ 100 nM
